Test results as given in patent US9980943B2, “Methods of treating muscular dystrophy” (BOARD OF REGENTS OF THE NEVADA SYSTEM OF HIGHER EDUCATION, …, priority 2013, dated 2018).

Key:
Format in all cases: cell-based, mouse
[1] = test system: α7 integrin (LacZ reporter in α7βgal+/− myoblasts); test: Myoblast α7+/LacZ integrin FDG assay (Burkin assay in myoblasts, 96-well); conditions: 96-well; for Burkin Assay in Myoblasts, value relative to DMSO: SU9516 analogs, N=3-6; for Burkin Assay in Myoblasts, signal relative to DMSO: α7+/LacZ myoblasts
[2] = test system: α7 integrin (LacZ reporter in α7+/LacZ myotubes); test: Myotube α7 integrin FDG assay (Burkin assay in myotubes, 96-well); conditions: for Burkin Assay in Myotubes, value relative to DMSO: SU9516 analogs, 96-well, N=3-6
[3] = test system: β-galactosidase in CMV-LacZ C2C12 myoblasts; test: CMV-LacZ secondary screen in C2C12 myoblasts (β-Gal stabilizing assay); conditions: for CMV-LACZ in Myoblasts, value relative to DMSO: SU9516 analogs, C2C12 CMV-LacZ, N=2; for CMV-LACZ in Myoblasts (β-galactosidase activity relative to DMSO): CMV-LacZ C2C12 myoblasts
Summary of the method: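 β-Gal level was the read-out, measured in a clonal C2C12 line expressing LacZ from a CMV promoter. Dose-response curves used six concentrations, 0.5 μM up to 40 μM, with duplicate points.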

[4] = test system: β-galactosidase in CMV-LacZ C2C12 myotubes; test: CMV-LacZ secondary screen in C2C12 myotubes (β-Gal stabilizing assay); conditions: for CMV-LACZ in Myotubes, value relative to DMSO: SU9516 analogs, C2C12 CMV-LacZ, N=2; for CMV-LACZ in Myotubes, signal relative to DMSO: C2C12 CMV-LacZ myotubes, fold relative to DMSO
Summary of the method: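 Stable CMV-LacZ C2C12 clone; six-point curve 0.5–40 μM; duplicates.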

CCO/C(C)=C1\C(=O)Nc2ccccc21 [MLS000554109-01]
Burkin Assay in Myoblasts, value relative to DMSO ([1]; 0.5 uM): 0.9929
Burkin Assay in Myoblasts, value relative to DMSO ([1]; 1 uM): 1.049
Burkin Assay in Myoblasts, value relative to DMSO ([1]; 5 uM): 1.067
Burkin Assay in Myoblasts, value relative to DMSO ([1]; 10 uM): 1.095
Burkin Assay in Myoblasts, value relative to DMSO ([1]; 20 uM): 0.9611
Burkin Assay in Myoblasts, value relative to DMSO ([1]; 40 uM): 0.8937
Burkin Assay in Myotubes, value relative to DMSO ([2]; 0.5 uM): 0.8839
Burkin Assay in Myotubes, value relative to DMSO ([2]; 1 uM): 1.054
Burkin Assay in Myotubes, value relative to DMSO ([2]; 5 uM): 0.9611
Burkin Assay in Myotubes, value relative to DMSO ([2]; 10 uM): 0.9874
Burkin Assay in Myotubes, value relative to DMSO ([2]; 20 uM): 0.8426
Burkin Assay in Myotubes, value relative to DMSO ([2]; 40 uM): 1.048
CMV-LACZ in Myoblasts, value relative to DMSO ([3]; 0.5 uM): 1.1083
CMV-LACZ in Myoblasts, value relative to DMSO ([3]; 1 uM): 1.1863
CMV-LACZ in Myoblasts, value relative to DMSO ([3]; 5 uM): 0.9003
CMV-LACZ in Myoblasts, value relative to DMSO ([3]; 10 uM): 0.9457
CMV-LACZ in Myoblasts, value relative to DMSO ([3]; 20 uM): 0.9853
CMV-LACZ in Myoblasts, value relative to DMSO ([3]; 40 uM): 0.9650
CMV-LACZ in Myotubes, value relative to DMSO ([4]; 0.5 uM): 1.2682
CMV-LACZ in Myotubes, value relative to DMSO ([4]; 1 uM): 0.9491
CMV-LACZ in Myotubes, value relative to DMSO ([4]; 5 uM): 1.1559
CMV-LACZ in Myotubes, value relative to DMSO ([4]; 10 uM): 1.1355
CMV-LACZ in Myotubes, value relative to DMSO ([4]; 20 uM): 0.9100
CMV-LACZ in Myotubes, value relative to DMSO ([4]; 40 uM): 0.9950

c1ccc(-c2cc(-c3nc4ccccc4[nH]3)c3ccccc3n2)cc1 [MLS000554416-01]
Burkin Assay in Myoblasts, signal relative to DMSO ([1]; 0.5 uM): 1.211
Burkin Assay in Myoblasts, signal relative to DMSO ([1]; 1 uM): 1.0679
Burkin Assay in Myoblasts, signal relative to DMSO ([1]; 5 uM): 0.9915
Burkin Assay in Myoblasts, signal relative to DMSO ([1]; 10 uM): 0.9591
Burkin Assay in Myoblasts, signal relative to DMSO ([1]; 20 uM): 1.087
Burkin Assay in Myoblasts, signal relative to DMSO ([1]; 40 uM): 0.8248
Burkin Assay in Myotubes, α7 integrin LacZ reporter signal relative to DMSO ([2]; 0.5 uM): 0.9146
Burkin Assay in Myotubes, α7 integrin LacZ reporter signal relative to DMSO ([2]; 1 uM): 0.9261
Burkin Assay in Myotubes, α7 integrin LacZ reporter signal relative to DMSO ([2]; 5 uM): 0.8366
Burkin Assay in Myotubes, α7 integrin LacZ reporter signal relative to DMSO ([2]; 10 uM): 0.9334
Burkin Assay in Myotubes, α7 integrin LacZ reporter signal relative to DMSO ([2]; 20 uM): 0.6816
Burkin Assay in Myotubes, α7 integrin LacZ reporter signal relative to DMSO ([2]; 40 uM): 0.4915
CMV-LACZ in Myoblasts (β-galactosidase activity relative to DMSO) ([3]; 0.5 uM): 1.1310
CMV-LACZ in Myoblasts (β-galactosidase activity relative to DMSO) ([3]; 1 uM): 1.3983
CMV-LACZ in Myoblasts (β-galactosidase activity relative to DMSO) ([3]; 5 uM): 0.8594
CMV-LACZ in Myoblasts (β-galactosidase activity relative to DMSO) ([3]; 10 uM): 1.1123
CMV-LACZ in Myoblasts (β-galactosidase activity relative to DMSO) ([3]; 20 uM): 1.1077
CMV-LACZ in Myoblasts (β-galactosidase activity relative to DMSO) ([3]; 40 uM): 0.8611
CMV-LACZ in Myotubes, signal relative to DMSO ([4]; 0.5 uM): 1.0019
CMV-LACZ in Myotubes, signal relative to DMSO ([4]; 1 uM): 0.9629
CMV-LACZ in Myotubes, signal relative to DMSO ([4]; 5 uM): 0.8969
CMV-LACZ in Myotubes, signal relative to DMSO ([4]; 10 uM): 0.9798
CMV-LACZ in Myotubes, signal relative to DMSO ([4]; 20 uM): 0.8760
CMV-LACZ in Myotubes, signal relative to DMSO ([4]; 40 uM): 0.7060

O=C(Nc1cc(-c2nc3ccccc3s2)ccc1Cl)c1ccc2c(c1)OCO2 [MLS000560266-01]
Burkin Assay in Myoblasts, signal relative to DMSO ([1]; 0.5 uM): 0.953
Burkin Assay in Myoblasts, signal relative to DMSO ([1]; 1 uM): 0.8556
Burkin Assay in Myoblasts, signal relative to DMSO ([1]; 5 uM): 1.026
Burkin Assay in Myoblasts, signal relative to DMSO ([1]; 10 uM): 1.13
Burkin Assay in Myoblasts, signal relative to DMSO ([1]; 20 uM): 0.8321
Burkin Assay in Myoblasts, signal relative to DMSO ([1]; 40 uM): 0.5589
Burkin Assay in Myotubes, α7 integrin LacZ reporter signal relative to DMSO ([2]; 0.5 uM): 0.9891
Burkin Assay in Myotubes, α7 integrin LacZ reporter signal relative to DMSO ([2]; 1 uM): 0.8824
Burkin Assay in Myotubes, α7 integrin LacZ reporter signal relative to DMSO ([2]; 5 uM): 1.037
Burkin Assay in Myotubes, α7 integrin LacZ reporter signal relative to DMSO ([2]; 10 uM): 1.185
Burkin Assay in Myotubes, α7 integrin LacZ reporter signal relative to DMSO ([2]; 20 uM): 0.6706
Burkin Assay in Myotubes, α7 integrin LacZ reporter signal relative to DMSO ([2]; 40 uM): 0.6059
CMV-LACZ in Myoblasts (β-galactosidase activity relative to DMSO) ([3]; 0.5 uM): 0.9030
CMV-LACZ in Myoblasts (β-galactosidase activity relative to DMSO) ([3]; 1 uM): 0.8123
CMV-LACZ in Myoblasts (β-galactosidase activity relative to DMSO) ([3]; 5 uM): 0.9405
CMV-LACZ in Myoblasts (β-galactosidase activity relative to DMSO) ([3]; 10 uM): 0.9991
CMV-LACZ in Myoblasts (β-galactosidase activity relative to DMSO) ([3]; 20 uM): 1.1095
CMV-LACZ in Myoblasts (β-galactosidase activity relative to DMSO) ([3]; 40 uM): 1.0484
CMV-LACZ in Myotubes, signal relative to DMSO ([4]; 0.5 uM): 0.9724
CMV-LACZ in Myotubes, signal relative to DMSO ([4]; 1 uM): 1.0000
CMV-LACZ in Myotubes, signal relative to DMSO ([4]; 5 uM): 1.0253
CMV-LACZ in Myotubes, signal relative to DMSO ([4]; 10 uM): 1.0224
CMV-LACZ in Myotubes, signal relative to DMSO ([4]; 20 uM): 1.0520
CMV-LACZ in Myotubes, signal relative to DMSO ([4]; 40 uM): 0.9470
